Assay results taken from BigSolDB 2.1.

## CCCCN(CCCC)CC(O)c1cc(Cl)cc2c1-c1ccc(Cl)cc1/C2=C/c1ccc(Cl)cc1 (stereo not given)
In ethanol, 278.15 K
  solubility (mole fraction): 5.32e-05
In ethanol, 283.15 K
  solubility (mole fraction): 7.11e-05
In ethanol, 288.15 K
  solubility (mole fraction): 9.63e-05
In ethanol, 293.15 K
  solubility (mole fraction): 0.000127
In ethanol, 298.15 K
  solubility (mole fraction): 0.000158
In ethanol, 303.15 K
  solubility (mole fraction): 0.000213
In ethanol, 308.15 K
  solubility (mole fraction): 0.000265
In ethanol, 313.15 K
  solubility (mole fraction): 0.000323
In ethanol, 318.15 K
  solubility (mole fraction): 0.000401
In ethanol, 323.15 K
  solubility (mole fraction): 0.000497
In ethyl acetate, 278.15 K
  solubility (mole fraction): 0.00178
In ethyl acetate, 283.15 K
  solubility (mole fraction): 0.00233
In ethyl acetate, 288.15 K
  solubility (mole fraction): 0.00315
In ethyl acetate, 293.15 K
  solubility (mole fraction): 0.00409
In ethyl acetate, 298.15 K
  solubility (mole fraction): 0.00538
In ethyl acetate, 303.15 K
  solubility (mole fraction): 0.0069
In ethyl acetate, 308.15 K
  solubility (mole fraction): 0.009
In ethyl acetate, 313.15 K
  solubility (mole fraction): 0.0116
In ethyl acetate, 318.15 K
  solubility (mole fraction): 0.0151
In ethyl acetate, 323.15 K
  solubility (mole fraction): 0.0201
In methanol, 278.15 K
  solubility (mole fraction): 1.34e-05
In methanol, 283.15 K
  solubility (mole fraction): 1.7e-05
In methanol, 288.15 K
  solubility (mole fraction): 2.27e-05
In methanol, 293.15 K
  solubility (mole fraction): 3.03e-05
In methanol, 298.15 K
  solubility (mole fraction): 3.81e-05
In methanol, 303.15 K
  solubility (mole fraction): 4.95e-05
In methanol, 308.15 K
  solubility (mole fraction): 6.28e-05
In methanol, 313.15 K
  solubility (mole fraction): 8.17e-05
In methanol, 318.15 K
  solubility (mole fraction): 0.000105
In methanol, 323.15 K
  solubility (mole fraction): 0.000136
In methyl acetate, 278.15 K
  solubility (mole fraction): 0.000656
In methyl acetate, 283.15 K
  solubility (mole fraction): 0.000903
In methyl acetate, 288.15 K
  solubility (mole fraction): 0.00136
In methyl acetate, 293.15 K
  solubility (mole fraction): 0.00186
In methyl acetate, 298.15 K
  solubility (mole fraction): 0.00262
In methyl acetate, 303.15 K
  solubility (mole fraction): 0.00364
In methyl acetate, 308.15 K
  solubility (mole fraction): 0.00495
In methyl acetate, 313.15 K
  solubility (mole fraction): 0.00669
In methyl acetate, 318.15 K
  solubility (mole fraction): 0.00913
In methyl acetate, 323.15 K
  solubility (mole fraction): 0.0126
In n-butanol, 278.15 K
  solubility (mole fraction): 0.000137
In n-butanol, 283.15 K
  solubility (mole fraction): 0.000182
In n-butanol, 288.15 K
  solubility (mole fraction): 0.000281
In n-butanol, 293.15 K
  solubility (mole fraction): 0.00038
In n-butanol, 298.15 K
  solubility (mole fraction): 0.000493
In n-butanol, 303.15 K
  solubility (mole fraction): 0.00065
In n-butanol, 308.15 K
  solubility (mole fraction): 0.000851
In n-butanol, 313.15 K
  solubility (mole fraction): 0.00115
In n-butanol, 318.15 K
  solubility (mole fraction): 0.00147
In n-butanol, 323.15 K
  solubility (mole fraction): 0.00187
In n-butyl acetate, 278.15 K
  solubility (mole fraction): 0.00423
In n-butyl acetate, 283.15 K
  solubility (mole fraction): 0.00531
In n-butyl acetate, 288.15 K
  solubility (mole fraction): 0.00672
In n-butyl acetate, 293.15 K
  solubility (mole fraction): 0.00864
In n-butyl acetate, 298.15 K
  solubility (mole fraction): 0.0108
In n-butyl acetate, 303.15 K
  solubility (mole fraction): 0.0137
In n-butyl acetate, 308.15 K
  solubility (mole fraction): 0.0175
In n-butyl acetate, 313.15 K
  solubility (mole fraction): 0.0223
In n-butyl acetate, 318.15 K
  solubility (mole fraction): 0.0285
In n-butyl acetate, 323.15 K
  solubility (mole fraction): 0.0359
In n-heptanol, 278.15 K
  solubility (mole fraction): 0.000337
In n-heptanol, 283.15 K
  solubility (mole fraction): 0.000437
In n-heptanol, 288.15 K
  solubility (mole fraction): 0.000586
In n-heptanol, 293.15 K
  solubility (mole fraction): 0.000781
In n-heptanol, 298.15 K
  solubility (mole fraction): 0.0011
In n-heptanol, 303.15 K
  solubility (mole fraction): 0.00149
In n-heptanol, 308.15 K
  solubility (mole fraction): 0.00193
In n-heptanol, 313.15 K
  solubility (mole fraction): 0.00245
In n-heptanol, 318.15 K
  solubility (mole fraction): 0.00339
In n-heptanol, 323.15 K
  solubility (mole fraction): 0.0045
In n-hexanol, 278.15 K
  solubility (mole fraction): 0.00021
In n-hexanol, 283.15 K
  solubility (mole fraction): 0.000315
In n-hexanol, 288.15 K
  solubility (mole fraction): 0.000477
In n-hexanol, 293.15 K
  solubility (mole fraction): 0.000604
In n-hexanol, 298.15 K
  solubility (mole fraction): 0.000886
In n-hexanol, 303.15 K
  solubility (mole fraction): 0.00119
In n-hexanol, 308.15 K
  solubility (mole fraction): 0.00171
In n-hexanol, 313.15 K
  solubility (mole fraction): 0.00214
In n-hexanol, 318.15 K
  solubility (mole fraction): 0.00289
In n-hexanol, 323.15 K
  solubility (mole fraction): 0.00387
In n-octanol, 278.15 K
  solubility (mole fraction): 0.000352
In n-octanol, 283.15 K
  solubility (mole fraction): 0.000474
In n-octanol, 288.15 K
  solubility (mole fraction): 0.00073
In n-octanol, 293.15 K
  solubility (mole fraction): 0.000945
In n-octanol, 298.15 K
  solubility (mole fraction): 0.00125
In n-octanol, 303.15 K
  solubility (mole fraction): 0.00172
In n-octanol, 308.15 K
  solubility (mole fraction): 0.00221
In n-octanol, 313.15 K
  solubility (mole fraction): 0.00298
In n-octanol, 318.15 K
  solubility (mole fraction): 0.00385
In n-octanol, 323.15 K
  solubility (mole fraction): 0.00516
In n-pentanol, 278.15 K
  solubility (mole fraction): 0.000215
In n-pentanol, 283.15 K
  solubility (mole fraction): 0.00028
In n-pentanol, 288.15 K
  solubility (mole fraction): 0.000423
In n-pentanol, 293.15 K
  solubility (mole fraction): 0.000555
In n-pentanol, 298.15 K
  solubility (mole fraction): 0.000745
In n-pentanol, 303.15 K
  solubility (mole fraction): 0.000968
In n-pentanol, 308.15 K
  solubility (mole fraction): 0.0013
In n-pentanol, 313.15 K
  solubility (mole fraction): 0.0017
In n-pentanol, 318.15 K
  solubility (mole fraction): 0.0022
In n-pentanol, 323.15 K
  solubility (mole fraction): 0.00288
In n-pentyl acetate, 278.15 K
  solubility (mole fraction): 0.00474
In n-pentyl acetate, 283.15 K
  solubility (mole fraction): 0.00654
In n-pentyl acetate, 288.15 K
  solubility (mole fraction): 0.00846
In n-pentyl acetate, 293.15 K
  solubility (mole fraction): 0.011
In n-pentyl acetate, 298.15 K
  solubility (mole fraction): 0.0137
In n-pentyl acetate, 303.15 K
  solubility (mole fraction): 0.0168
In n-pentyl acetate, 308.15 K
  solubility (mole fraction): 0.0211
In n-pentyl acetate, 313.15 K
  solubility (mole fraction): 0.0252
In n-pentyl acetate, 318.15 K
  solubility (mole fraction): 0.0326
In n-pentyl acetate, 323.15 K
  solubility (mole fraction): 0.0406
In n-propanol, 278.15 K
  solubility (mole fraction): 8.62e-05
In n-propanol, 283.15 K
  solubility (mole fraction): 0.000107
In n-propanol, 288.15 K
  solubility (mole fraction): 0.000145
In n-propanol, 293.15 K
  solubility (mole fraction): 0.00021
In n-propanol, 298.15 K
  solubility (mole fraction): 0.000279
In n-propanol, 303.15 K
  solubility (mole fraction): 0.000388
In n-propanol, 308.15 K
  solubility (mole fraction): 0.000502
In n-propanol, 313.15 K
  solubility (mole fraction): 0.000696
In n-propanol, 318.15 K
  solubility (mole fraction): 0.000967
In n-propanol, 323.15 K
  solubility (mole fraction): 0.00131
In n-propyl acetate, 278.15 K
  solubility (mole fraction): 0.00281
In n-propyl acetate, 283.15 K
  solubility (mole fraction): 0.00365
In n-propyl acetate, 288.15 K
  solubility (mole fraction): 0.00485
In n-propyl acetate, 293.15 K
  solubility (mole fraction): 0.00653
In n-propyl acetate, 298.15 K
  solubility (mole fraction): 0.00838
In n-propyl acetate, 303.15 K
  solubility (mole fraction): 0.0109
In n-propyl acetate, 308.15 K
  solubility (mole fraction): 0.0139
In n-propyl acetate, 313.15 K
  solubility (mole fraction): 0.018
In n-propyl acetate, 318.15 K
  solubility (mole fraction): 0.0231
In n-propyl acetate, 323.15 K
  solubility (mole fraction): 0.0304
